Test results: patent US12187723B2 (BRISTOL-MYERS SQUIBB COMPANY, priority 2019, dated 2025)

Tests used:
human TLR8 = molecular target: T1, human TLR8 (Homo sapiens, UniProt Q9NR97); assay: TLR8 inhibition reporter assay (HEK-Blue SEAP); assay type: cell-based; settings: HEK-Blue cells overexpressing human TLR8, R848 15.9 μM, 22 hour incubation
T1 construct: host or cells: HEK-Blue cells
T1 sequence (Q9NR97 27-1041): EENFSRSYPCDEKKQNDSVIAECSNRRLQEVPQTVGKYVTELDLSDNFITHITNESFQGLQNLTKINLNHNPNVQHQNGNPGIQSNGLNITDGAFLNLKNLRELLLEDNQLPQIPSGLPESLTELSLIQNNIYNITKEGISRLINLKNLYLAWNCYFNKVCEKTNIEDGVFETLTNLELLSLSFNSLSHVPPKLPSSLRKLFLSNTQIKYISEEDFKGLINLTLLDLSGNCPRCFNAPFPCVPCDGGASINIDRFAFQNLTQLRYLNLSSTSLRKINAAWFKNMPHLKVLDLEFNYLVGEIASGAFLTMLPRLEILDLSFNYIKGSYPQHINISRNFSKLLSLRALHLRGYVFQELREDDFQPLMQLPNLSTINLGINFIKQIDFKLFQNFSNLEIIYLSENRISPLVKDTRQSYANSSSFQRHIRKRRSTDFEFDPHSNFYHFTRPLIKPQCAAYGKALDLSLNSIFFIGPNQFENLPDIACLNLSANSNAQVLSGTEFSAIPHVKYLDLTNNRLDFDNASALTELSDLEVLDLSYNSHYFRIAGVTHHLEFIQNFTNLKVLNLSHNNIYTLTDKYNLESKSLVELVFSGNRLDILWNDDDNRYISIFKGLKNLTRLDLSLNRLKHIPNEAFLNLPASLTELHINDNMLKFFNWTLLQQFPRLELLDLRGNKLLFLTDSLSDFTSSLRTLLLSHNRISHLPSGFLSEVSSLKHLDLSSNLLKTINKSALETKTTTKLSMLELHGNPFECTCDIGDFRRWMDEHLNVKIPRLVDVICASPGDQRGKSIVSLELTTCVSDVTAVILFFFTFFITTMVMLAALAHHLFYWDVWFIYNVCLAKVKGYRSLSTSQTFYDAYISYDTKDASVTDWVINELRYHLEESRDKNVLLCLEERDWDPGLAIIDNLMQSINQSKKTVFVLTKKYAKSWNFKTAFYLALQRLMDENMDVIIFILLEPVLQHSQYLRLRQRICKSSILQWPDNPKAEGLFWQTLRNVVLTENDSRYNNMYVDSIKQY
In short: (§1)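 Agonists used: gardiquimod 7.5 μM (TLR7), R848 15.9 μM (TLR8), ODN2006 5 nM (TLR9), added after 30 min room-temperature compound pre-treatment (0.05 nM–50 μM) of receptor-overexpressing HEK-Blue cells. SEAP reporter (NF-κB/AP-1 driven) read after 22 h at 37 °C; inhibition scaled between agonist+DMSO and reference-inhibitor wells.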

human TLR9 = molecular target: T2, human TLR9 (Homo sapiens, UniProt Q9NR96); assay: TLR9 inhibition reporter assay (HEK-Blue SEAP); assay type: cell-based; settings: HEK-Blue cells overexpressing human TLR9, ODN2006 5 nM, 22 hour incubation
T2 construct: host or cells: HEK-Blue cells
T2 sequence (Q9NR96 26-1032): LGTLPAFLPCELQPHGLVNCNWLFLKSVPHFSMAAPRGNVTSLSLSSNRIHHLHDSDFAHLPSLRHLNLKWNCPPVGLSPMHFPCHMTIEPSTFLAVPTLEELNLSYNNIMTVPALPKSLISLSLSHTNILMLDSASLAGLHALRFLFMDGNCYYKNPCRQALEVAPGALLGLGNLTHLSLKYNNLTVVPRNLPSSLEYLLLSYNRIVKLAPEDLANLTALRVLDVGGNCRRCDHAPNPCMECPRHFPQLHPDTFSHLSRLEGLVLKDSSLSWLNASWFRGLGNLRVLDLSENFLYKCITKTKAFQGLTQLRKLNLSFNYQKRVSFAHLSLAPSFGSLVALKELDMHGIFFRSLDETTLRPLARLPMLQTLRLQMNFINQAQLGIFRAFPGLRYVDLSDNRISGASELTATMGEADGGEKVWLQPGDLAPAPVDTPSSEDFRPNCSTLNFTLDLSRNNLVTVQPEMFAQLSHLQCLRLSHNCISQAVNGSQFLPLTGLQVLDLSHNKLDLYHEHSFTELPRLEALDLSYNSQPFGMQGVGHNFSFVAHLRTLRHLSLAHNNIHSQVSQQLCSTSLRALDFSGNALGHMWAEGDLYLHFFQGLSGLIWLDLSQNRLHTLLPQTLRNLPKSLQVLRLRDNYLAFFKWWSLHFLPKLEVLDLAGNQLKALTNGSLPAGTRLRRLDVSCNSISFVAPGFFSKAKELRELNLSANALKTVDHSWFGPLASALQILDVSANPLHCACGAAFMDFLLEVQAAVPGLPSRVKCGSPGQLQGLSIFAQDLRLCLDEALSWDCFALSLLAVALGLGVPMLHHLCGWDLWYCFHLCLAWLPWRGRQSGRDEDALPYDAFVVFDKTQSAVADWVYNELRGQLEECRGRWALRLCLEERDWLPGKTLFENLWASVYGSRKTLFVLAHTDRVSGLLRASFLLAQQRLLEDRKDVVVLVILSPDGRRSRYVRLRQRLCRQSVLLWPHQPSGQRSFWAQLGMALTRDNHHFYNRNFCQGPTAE
In short: as §1

| Compound | IC50 (human TLR8) [nM] | IC50 (human TLR9) [nM] |
| --- | --- | --- |
| Cc1c(-c2cc3[nH]c(=O)n(C4CCC(N5CC(F)C5)CC4)c3cc2C(C)C)cn2ncnc2c1C (stereo not drawn) [Example 279, 5-(7,8-dimethyl-[1,2,4]triazolo[1,5-a]pyridin-6-yl)-1-(4-(3-fluoroazetidin-1-yl)cyclohexyl)-6-isopropyl-1,3-dihydro-2H-benzo[d]imidazol-2-one] | 1.52 | 10800 |
| Cc1c(-c2cc3[nH]c(=O)n(C4CCC(N5CC(F)C5)CC4)c3cc2C(C)C)cn2ncnc2c1C (stereo not drawn) [Example 280, 5-(7,8-dimethyl-[1,2,4]triazolo[1,5-a]pyridin-6-yl)-1-(4-(3-fluoroazetidin-1-yl)cyclohexyl)-6-isopropyl-1,3-dihydro-2H-benzo[d]imidazol-2-one] | 2.75 | 20600 |
| COc1cc(-c2cc3[nH]c(=O)n(C4CCC(N5CC[C@H](F)C5)CC4)c3cc2C(C)C)cn2ncnc12 (stereo partly drawn) [Example 287, (S)-1-(4-(3-fluoropyrrolidin-1-yl)cyclohexyl)-6-isopropyl-5-(8-methoxy-[1,2,4]triazolo[1,5-a]pyridin-6-yl)-1,3-dihydro-2H-benzo[d]imidazol-2-one] | 1.66 | 10900 |

These reach a lower IC50 (human TLR8). Values come first.

| IC50 (human TLR8) [nM] | IC50 (human TLR9) [nM] | Compound |
| --- | --- | --- |
| 0.18 | 3560 | COc1cc(-c2cc3[nH]c(=O)n(C4CCC(N5CCC(OC)C5)CC4)c3cc2C(C)C)cn2ncnc12 (stereo not drawn) [Example 284, 6-isopropyl-5-(8-methoxy-[1,2,4]triazolo[1,5-a]pyridin-6-yl)-1-(4-(3-methoxypyrrolidin-1-yl)cyclohexyl)-1,3-dihydro-2H-benzo[d]imidazol-2-one] |
| 0.13 | 8310 | COc1cc(-c2cc3[nH]c(=O)n(C4CCC(N5CCC(OC)C5)CC4)c3cc2C(C)C)cn2ncnc12 (stereo not drawn) [Example 285, 6-isopropyl-5-(8-methoxy-[1,2,4]triazolo[1,5-a]pyridin-6-yl)-1-(4-(3-methoxypyrrolidin-1-yl)cyclohexyl)-1,3-dihydro-2H-benzo[d]imidazol-2-one] |
| 0.9 | 4280 | COc1cc(-c2cc3[nH]c(=O)n(C4CCC(N5CC[C@H](F)C5)CC4)c3cc2C(C)C)cn2ncnc12 (stereo partly drawn) [Example 286, (S)-1-(4-(3-fluoropyrrolidin-1-yl)cyclohexyl)-6-isopropyl-5-(8-methoxy-[1,2,4]triazolo[1,5-a]pyridin-6-yl)-1,3-dihydro-2H-benzo[d]imidazol-2-one] |
